Measurements as given in patent US6461807B1, “Methods for drug target screening” (priority 1997, dated 2002).

How the values were obtained:
[1] = tested on: S. cerevisiae wild-type and cna, cph1, fpr1 deletion strains; assay: Transcript array comparison of drug-exposed wild-type and deletion mutant yeast, microarray with approximately 5900 ORFs; assay type: cell-based, Saccharomyces cerevisiae
Protocol: (§1) The RNA was converted into cDNA while simultaneously incorporating fluorescent nucleotides, according to standard protocols as described above. The cDNAs were hybridized to either a microarray having 140 sites with relevant S. cerevisiae ORF sequences, or to a microarray having sites with 5900 sites with nearly all known S. cerevisiae ORF sequences. The intensities of the two fluors used to label the RNAs to be compared were measured at each site of the array. The ratio of these intensities is referred to as the expression ratio.
(§2) To produce deletion mutant transcript arrays, RNA was prepared from a publicly available S. cerevisiae strain that contains genetic disruptions in both catalytic subunits of calcineurin (hereinafter, the cna mutant) and its isogeneic with the parental wild-type strain. These two strains were grown in parallel, harvested and processed in an identical manner as described above. As above, the cDNAs were hybridized to the array and the intensities of the two fluors (expression ratio) were measured at each site of the array. Thereby a cna mutant transcript array was produced.
(§3) Selected pairs of the transcript arrays were compared by computing a correlation coefficient between the pairs as previously described. As is known in the art, higher values of the correlation coefficient represent a greater degree of similarity between the pair of arrays. As indicated subsequently, in some cases expression ratios were directly used for this computation, while in other cases the log10 function of the expression ratios were used.
In this table, columns two and three list the transcript arrays that are compared (labeled “First Transcript Array” and “Second Transcript Array”). Their correlation coefficient is presented in the fourth column (labeled “Corr. Coef.”). The number of standard deviations represented by the correlation coefficient (in terms of the expected correlation coefficient representing one Gaussian standard deviation) is presented in the fifth column (labeled “Std. Dev.”). The expected standard deviation depends on the data set size according to known statistical procedures. The number of standard deviations above the expected mean can be used to determine the statistical significance of the correlation coefficient, as is known in the art.
The transcript arrays measured in Tables 1 and 2 were similarly produced by the previously described methods.

[2] = tested on: S. cerevisiae wild-type and cna, cph1, fpr1 deletion strains; assay: Transcript array comparison of drug-exposed wild-type and deletion mutant yeast, microarray with 140 selected ORF sites; assay type: cell-based, Saccharomyces cerevisiae; details: Table 3, 140 ORF sites
Protocol: as §1, §2
Deletion mutant transcript arrays were also produced in similar manners for disruptions to the genes cph1 (coding the major cyclophilin in yeast) and fpr1 (coding the major FK506-binding protein).
as §3
This table, in contrast to Table 1 and 2 (which were created from microarrays with approximately 5900 ORF sites) was created from microarray having sites with 140 S. cerevisiae selected ORF sites thought to be relevant to the primary action of these drugs. Correlation coefficients were computed using log10 of the raw expression ratios.

[3] = Table 1, log10 of expression ratios, 1 mg/ml FK506 or 30 mg/ml CSA

Question: For `C=CC[C@@H]1/C=C(\C)C[C@H](C)C[C@H](OC)[C@H]2O[C@@](O)(C(=O)C(=O)N3CCCC[C@H]3C(=O)O[C@H](/C(C)=C/[C@@H]3CC[C@@H](O)[C@H](OC)C3)[C@H](C)[C@@H](O)CC1=O)[C@H](C)C[C@@H]2OC` [FK506], which “Corr. Coef., wild-type drug transcript array vs fpr1 mutant transcript array” value ([1]; Table 1, log10 of expression ratios, 1 mg/ml FK506) is on record?
Answer: −0.011

Question: What about the “Corr. Coef., wild-type FK506 drug transcript array vs wild-type CSA drug transcript array” value ([1]; Table 1, log10 of expression ratios, 1 mg/ml FK506, 30 mg/ml CSA, three generations) of the same molecule?
Answer: 0.334

Question: What about the “Corr. Coef., wild-type drug transcript array vs cna mutant drug transcript array (same drug)” value [1, 3] of the same molecule?
Answer: 0.065

Question: And the “Corr. Coef., wild-type drug transcript array vs cna mutant transcript array” value [1, 3]?
Answer: 0.605

Question: What about the “Corr. Coef., wild-type drug transcript array vs cph1 mutant drug transcript array (same drug)” value [1, 3] of the same molecule?
Answer: 0.767

Question: And the “Corr. Coef., wild-type drug transcript array vs fpr1 mutant drug transcript array (same drug)” value [1, 3]?
Answer: −0.085

Question: What about the “Corr. Coef., wild-type FK506 drug transcript array vs cna mutant FK506 drug transcript array” value ([1]; Table 2) of the same molecule?
Answer: 0.052

Question: What about the “Corr. Coef., wild-type FK506 drug transcript array vs cna mutant transcript array” value ([1]; Table 2) of the same molecule?
Answer: 0.245

Question: What about the “Corr. Coef., wild-type FK506 drug transcript array vs cph1 mutant FK506 drug transcript array” value ([1]; Table 2) of the same molecule?
Answer: 0.328

Question: What about the “Corr. Coef., wild-type FK506 drug transcript array vs fpr1 mutant FK506 drug transcript array” value ([1]; Table 2) of the same molecule?
Answer: 0.136

Question: What about the “Corr. Coef., wild-type FK506 drug transcript array vs wild-type CSA drug transcript array” value ([1]; Table 2) of the same molecule?
Answer: 0.243

Question: What about the “Corr. Coef., cna mutant FK506 drug transcript array vs cna mutant CSA drug transcript array” value [2] of the same molecule?
Answer: 0.20

Question: What about the “Corr. Coef., cph1 mutant FK506 drug transcript array vs cph1 mutant CSA drug transcript array” value [2] of the same molecule?
Answer: 0.15

Question: What about the “Corr. Coef., cph1 mutant FK506 drug transcript array vs fpr1 mutant CSA drug transcript array” value [2] of the same molecule?
Answer: 0.71

Question: And the “Corr. Coef., fpr1 mutant FK506 drug transcript array vs cph1 mutant CSA drug transcript array” value [2]?
Answer: 0.40

Question: And the “Corr. Coef., fpr1 mutant FK506 drug transcript array vs fpr1 mutant CSA drug transcript array” value [2]?
Answer: −0.01

Question: What about the “Corr. Coef., wild-type FK506 drug transcript array vs wild-type CSA drug transcript array” value ([2]; log10 of raw expression ratios) of the same molecule?
Answer: 0.67

Question: And the “Corr. Coef., wild-type drug transcript array vs cna mutant drug transcript array (same drug)” value ([2]; log10 of raw expression ratios)?
Answer: −0.12

Question: What about the “Corr. Coef., wild-type drug transcript array vs cna mutant transcript array” value ([2]; log10 of raw expression ratios) of the same molecule?
Answer: 0.61

Question: What about the “Corr. Coef., wild-type drug transcript array vs cph1 mutant drug transcript array (same drug)” value ([2]; log10 of raw expression ratios) of the same molecule?
Answer: 0.70

Question: And the “Corr. Coef., wild-type drug transcript array vs fpr1 mutant drug transcript array (same drug)” value ([2]; log10 of raw expression ratios)?
Answer: 0.04

Question: What about the “Corr. Coef., wild-type vs wild-type transcript array vs wild-type drug transcript array” value ([2]; negative control comparison) of the same molecule?
Answer: −0.05
